Source: ChEMBL document CHEMBL1128373, “A-ring ortho-disubstituted aporphine derivatives as potential agonists or antagonists at serotonergic 5-HT1A receptors” (J Med Chem, 1995)
The source made the active and inactive calls. No cut-off for these calls is given here.

Experiments:
Assay type in all cases: tissue-based
Conditions in all cases: Cavia porcellus, target entry is the homologue from another species
[1] = target: T1, 5-hydroxytryptamine receptor 1A (Homo sapiens) (UniProt P08908); assay: Ability to antagonize Acetylcholine induced contractile responses in Guinea pig ileum for 5-HT1A receptor. Inactive at dose level of 1.0 uM
T1 sequence (whole entry): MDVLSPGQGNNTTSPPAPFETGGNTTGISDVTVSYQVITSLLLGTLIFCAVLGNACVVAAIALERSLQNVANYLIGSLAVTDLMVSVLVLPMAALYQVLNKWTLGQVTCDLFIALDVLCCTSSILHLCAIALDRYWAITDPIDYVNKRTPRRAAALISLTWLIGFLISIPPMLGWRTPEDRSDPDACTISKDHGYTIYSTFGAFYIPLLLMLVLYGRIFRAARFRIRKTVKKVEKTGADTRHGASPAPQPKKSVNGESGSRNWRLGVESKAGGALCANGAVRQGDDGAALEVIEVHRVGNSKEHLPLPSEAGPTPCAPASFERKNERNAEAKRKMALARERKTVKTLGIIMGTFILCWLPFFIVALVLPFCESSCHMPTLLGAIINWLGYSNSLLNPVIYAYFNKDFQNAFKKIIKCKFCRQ

[2] = target: T1, 5-hydroxytryptamine receptor 1A (Homo sapiens); assay: Ability to antagonize electrical induced contractile responses in Guinea pig ileum for 5-HT1A receptor. Inactive at dose level of 1.0 uM
[3] = target: T1, 5-hydroxytryptamine receptor 1A (Homo sapiens); assay: Ability to antagonize electrical induced contractile responses in Guinea pig ileum for 5-HT1A receptor.
[4] = target: T1, 5-hydroxytryptamine receptor 1A (Homo sapiens); assay: Ability to antagonize Acetylcholine induced contractile responses in Guinea pig ileum for 5-HT1A receptor.
[5] = target: T1, 5-hydroxytryptamine receptor 1A (Homo sapiens); assay: Ability to antagonize electrical induced contractile responses in Guinea pig ileum for 5-HT1A receptor; Inactive at dose level of 1.0 uM

Row | SMILES | ED50 [1] | ED50 [2] | ED50 [3] [µM] | ED50 [4] [µM] | ED50 [5]
1 | Cc1cc2c(cc1O)CC1c3c(cccc3-2)CCN1C (single isomer, unassigned; (-)) | inactive | inactive | – | – | –
2 | Cc1cc2c(cc1O)-c1cccc3c1C(C2)N(C)CC3 (single isomer, unassigned; (-)) | inactive | inactive | – | – | –
3 | Cc1ccc2c(c1O)-c1cccc3c1[C@@H](C2)N(C)CC3 | – | – | 0.05 | – | –
4 | COc1cc2c(cc1C)-c1cccc3c1C(C2)N(C)CC3 (single isomer, unassigned; (-)) | – | – | 5 | 2.7 | –
5 | COc1cc2c(cc1C)CC1c3c(cccc3-2)CCN1C (stereo in doubt; (-)-9) | – | – | 2.6 | 11.4 | –
6 | Cc1cc2c(cc1O)-c1cccc3c1C(C2)N(C)CC3 (single isomer, unassigned; (+)) | inactive | – | – | – | inactive
7 | COc1cc2c(cc1C)-c1cccc3c1C(C2)N(C)CC3 (single isomer, unassigned; (+)) | – | – | 5.4 | 24.9 | –
8 | COc1cc2c(cc1C)CC1c3c(cccc3-2)CCN1C (stereo in doubt; (+)-9) | – | – | 5.9 | 36.6 | –
9 | Cc1cc2c(cc1O)CC1c3c(cccc3-2)CCN1C (single isomer, unassigned; (+)) | inactive | inactive | – | – | –
